# In publication PMC2895947 (Neuropsychopharmacology : official publication of the …, 2010):
# Key:
# FAAH−/− and FAAH+/+ mice [1] = assay: Rimonabant-precipitated withdrawal; assay type: in vivo; conditions: after subchronic 50 mg/kg twice daily 5.5 days; rimonabant 10 mg/kg i.p.
# CB1 receptor [2] = target: T1, CB1 receptor (Mus musculus, UniProt P47746); assay: Agonist-stimulated [35S]GTPγS binding in spinal cord membranes; assay type: biochemical, mice
# FAAH−/− and FAAH+/+ mice [3] = conditions: FAAH−/− mice ref Cravatt et al., 2001; cited from earlier work
# CB1 receptor [4] = target: T1, CB1 receptor; assay: [3H]WIN55,212-2 autoradiography in brain sections after subchronic treatment; assay type: binding; conditions: FAAH−/− mice treated subchronically; 1 nM radioligand; mean ± SEM
# CB1 receptor [5] = target: T1, CB1 receptor; assay type: biochemical, mice
# FAAH−/− and FAAH+/+ mice [6] = assay: Tail withdrawal; assay type: in vivo
# FAAH−/− and FAAH+/+ mice [7] = assay: Hypothermia; assay type: in vivo
# FAAH−/− and FAAH+/+ mice [8] = assay: Bar test for catalepsy, cumulative dose-response; assay type: in vivo
# [9] = THC blood and brain levels, single bolus vs cumulative dosing; assay type: in vivo; conditions: C57Bl/6J mice, mean ± SEM
# [10] = FAAH−/− mice treated subchronically, WIN55,212-2 10 μM, mean ± SEM
# [11] = FAAH+/+ mice, naive, cumulative dosing
# [12] = FAAH−/− mice, naive, cumulative dosing
# [13] = Table 3, FAAH−/− mice, subchronic AEA
# [14] = Table 3, FAAH−/− mice, subchronic THC
# [15] = Table 3, FAAH−/− mice, subchronic vehicle
# T1 sequence (P47746 whole entry): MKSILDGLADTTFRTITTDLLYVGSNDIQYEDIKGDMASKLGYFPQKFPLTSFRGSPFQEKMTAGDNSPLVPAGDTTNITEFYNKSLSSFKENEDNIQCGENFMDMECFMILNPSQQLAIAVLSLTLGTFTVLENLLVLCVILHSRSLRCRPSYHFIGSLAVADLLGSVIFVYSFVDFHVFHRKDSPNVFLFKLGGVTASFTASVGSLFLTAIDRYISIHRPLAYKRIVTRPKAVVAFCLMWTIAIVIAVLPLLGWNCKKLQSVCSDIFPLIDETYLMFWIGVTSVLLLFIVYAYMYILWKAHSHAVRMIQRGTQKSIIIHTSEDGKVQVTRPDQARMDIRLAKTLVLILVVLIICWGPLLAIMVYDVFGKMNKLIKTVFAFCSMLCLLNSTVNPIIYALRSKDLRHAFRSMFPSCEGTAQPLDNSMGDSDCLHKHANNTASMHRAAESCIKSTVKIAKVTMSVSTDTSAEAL
compound,measurement,setting,value
"CCCCC/C=C\C/C=C\C/C=C\C/C=C\CCCC(=O)NCCO [AEA, N-arachidonoyl ethanolamine]",Rimonabant precipitated head twitches / headshakes,FAAH−/− and FAAH+/+ mice [1],no changes
same,Emax of agonist-stimulated [35S]GTPγS binding,CB1 receptor [2]; spinal cord membranes from AEA-treated FAAH−/− mice,35 ± 3.3 % Stim
same,Emax as percent of that obtained in vehicle-treated mice,CB1 receptor [2]; spinal cord membranes from AEA-treated mice,104%
same,Emax of agonist-stimulated [35S]GTPγS binding,CB1 receptor [2]; spinal cord membranes from THC-treated FAAH−/− mice,25 ± 2.3 % Stim
same,Emax as percent of that obtained in vehicle-treated mice,CB1 receptor [2]; spinal cord membranes from THC-treated mice,75%
same,Emax of agonist-stimulated [35S]GTPγS binding,CB1 receptor [2]; spinal cord membranes from vehicle-treated FAAH−/− mice,34 ± 1.6 % Stim
same,"Persistence of antinociception, catalepsy, locomotor inhibition and hypothermia",FAAH−/− and FAAH+/+ mice [3],6 to 8 h
same,"Specific [3H]WIN55,212-2 binding, Caudate-Putamen",CB1 receptor [4],0.95 ± 0.09 pCi/g
same,"Specific [3H]WIN55,212-2 binding, Cerebellum",CB1 receptor [4],1.69 ± 0.18 pCi/g
same,"Specific [3H]WIN55,212-2 binding, Globus Pallidus",CB1 receptor [4],2.31 ± 0.18 pCi/g
same,"Specific [3H]WIN55,212-2 binding, Hippocampus",CB1 receptor [4],0.88 ± 0.06 pCi/g
same,"Specific [3H]WIN55,212-2 binding, PAG",CB1 receptor [4],0.57 ± 0.06 pCi/g
same,"Specific [3H]WIN55,212-2 binding, Substantia Nigra",CB1 receptor [4],3.11 ± 0.29 pCi/g
same,"WIN55,212-2-stimulated [35S]GTPγS binding vs vehicle control (study 1, Figure 5)","CB1 receptor [5]; FAAH+/+ and FAAH−/− mice, caudate putamen, hippocampus, cerebellum",not different from vehicle control
same,"Net WIN55,212-2-stimulated [35S]GTPγS binding, Caudate-Putamen",CB1 receptor [5]; [10],152 ± 28 nCi/g
same,"Net WIN55,212-2-stimulated [35S]GTPγS binding, Cerebellum",CB1 receptor [5]; [10],178 ± 23 nCi/g
same,"Net WIN55,212-2-stimulated [35S]GTPγS binding, Globus Pallidus",CB1 receptor [5]; [10],639 ± 60 nCi/g
same,"Net WIN55,212-2-stimulated [35S]GTPγS binding, Hippocampus",CB1 receptor [5]; [10],132 ± 24 nCi/g
same,"Net WIN55,212-2-stimulated [35S]GTPγS binding, PAG",CB1 receptor [5]; [10],79 ± 19 nCi/g
same,"Net WIN55,212-2-stimulated [35S]GTPγS binding, Substantia Nigra",CB1 receptor [5]; [10],592 ± 49 nCi/g
"CCCCCc1cc(O)c2c(c1)OC(C)(C)[C@@H]1CCC(C)=C[C@@H]21 [THC, Δ^9-tetrahydrocannabinol]",Rimonabant precipitated head twitches / headshakes,FAAH−/− and FAAH+/+ mice [1],significant increases
same,Antinociception ED50 (95% CI),FAAH−/− and FAAH+/+ mice [6]; [11],19 (14-26) mg/kg
same,Antinociception ED50 (95% CI),FAAH−/− and FAAH+/+ mice [6]; [12],22 (17-30) mg/kg
same,Antinociception maximum effect ± SEM,"FAAH−/− and FAAH+/+ mice [6]; FAAH−/− mice, subchronic THC 50 mg/kg twice daily 5.5 days, @ 300 mg/kg",25 + 4%MPE @ 300 mg/kg
same,Antinociception ED50 (95% CI),FAAH−/− and FAAH+/+ mice [6]; [13],55 (44-69) mg/kg
same,Antinociception ED50 (95% CI),FAAH−/− and FAAH+/+ mice [6]; [14],76 (58-99) mg/kg
same,Antinociception ED50 (95% CI),FAAH−/− and FAAH+/+ mice [6]; [15],20 (16-24) mg/kg
same,Hypothermia ED50 (95% CI),FAAH−/− and FAAH+/+ mice [7]; [11],18 (15-22) mg/kg
same,Hypothermia ED50 (95% CI),"FAAH−/− and FAAH+/+ mice [7]; FAAH+/+ mice, subchronic THC",109 (62- 190) mg/kg
same,Hypothermia ED50 (95% CI),FAAH−/− and FAAH+/+ mice [7]; [12],22 (16-32) mg/kg
same,Hypothermia ED50 (95% CI),"FAAH−/− and FAAH+/+ mice [7]; FAAH−/− mice, subchronic AEA",133 (106- 166) mg/kg
same,Hypothermia ED50 (95% CI),"FAAH−/− and FAAH+/+ mice [7]; FAAH−/− mice, subchronic THC",224 (190- 266) mg/kg
same,Hypothermia ED50 (95% CI),FAAH−/− and FAAH+/+ mice [7]; [13],50 (40-55) mg/kg
same,Hypothermia ED50 (95% CI),FAAH−/− and FAAH+/+ mice [7]; [14],32 (27-38) mg/kg
same,Hypothermia ED50 (95% CI),FAAH−/− and FAAH+/+ mice [7]; [15],17 (15-20) mg/kg
same,Catalepsy ED50 (95% CI),FAAH−/− and FAAH+/+ mice [8]; [11],18 (13-25) mg/kg
same,Catalepsy maximum effect,"FAAH−/− and FAAH+/+ mice [8]; FAAH+/+ mice, subchronic THC, @ 300 mg/kg",62% @ 300 mg/kg
same,Catalepsy ED50 (95% CI),FAAH−/− and FAAH+/+ mice [8]; [12],21 (15-28) mg/kg
same,Catalepsy maximum effect,"FAAH−/− and FAAH+/+ mice [8]; FAAH−/− mice, subchronic AEA, @ 300 mg/kg",25% @ 300 mg/kg
same,Catalepsy maximum effect,"FAAH−/− and FAAH+/+ mice [8]; FAAH−/− mice, subchronic THC, @ 300 mg/kg",67% @ 300 mg/kg
same,Catalepsy ED50 (95% CI),FAAH−/− and FAAH+/+ mice [8]; [13],62 (56-69) mg/kg
same,Catalepsy maximum effect,"FAAH−/− and FAAH+/+ mice [8]; Table 3, FAAH−/− mice, subchronic THC, @ 150 mg/kg",50% @ 150 mg/kg
same,Catalepsy ED50 (95% CI),FAAH−/− and FAAH+/+ mice [8]; [15],16 (13-19) mg/kg
same,"Brain THC level, single bolus",[9]; THC 3 mg/kg,77 ± 5 ng/mL
same,"Brain THC level, single bolus",[9]; THC 10 mg/kg,212 ± 19 ng/mL
same,"Brain THC level, cumulative dosing",[9]; THC 30 mg/kg cumulative,641 ± 134 ng/mL
same,"Brain THC level, single bolus",[9]; THC 30 mg/kg,520 ± 79 ng/mL
same,"Brain THC level, cumulative dosing",[9]; THC 56 mg/kg cumulative,1294 ± 178 ng/mL
same,"Brain THC level, single bolus",[9]; THC 56 mg/kg,1072 ± 156 ng/mL
